tested on: YAP-TEAD interaction; test: SK-HEP-1 reporter assay (8x TEAD responsive elements driving NanoLuc luciferase); format: cell-based; conditions: Homo sapiens, SK-HEP1, SK-HEP-1 cells, 24 hour incubation, group symbols
Experimental: To identify inhibitors of YAP-TEAD interaction, 8× TEAD responsive elements driving the NanoLuc® luciferase gene were stably integrated into SK-HEP-1 cells (ECACC #: 91091816).
For the assay, cells were treated in duplicates with the test compounds in a 10-point dose, with the top concentration starting at 30 μM (final concentration in assay). After a 24 hour incubation at 37° C., 95% rH, and 5% CO2, a luciferase substrate/lysis reagent mix (NanoGlo™, Promega) was added to the cells, allowing the quantification of cellular luciferase activity.
Cell Media: The cells were cultured in the following media: MEM, +10% FBS, +1× GlutaMAX, +1 mM Sodium-Pyruvate, +100 μM Non-essential amino acids, +0.1 mg/ml Hygromycin. The media used for the assay was: MEM (w/o Phenol Red), +10% FBS, +1× GlutaMAX, +1 mM Sodium-Pyruvate, +100 μM Non-essential amino acids, +0.5% Pen/Strep
Reagents: The reagents used are listed below:
Cell culture: The cells were examined using an inverted microscope to check for health and cell density. To dissociate adherent cells, the monolayer of cells was washed once with pre-warmed PBS. After removing the PBS, 3 ml pre-warmed Accutase® was added to a F75 flask, dispersed evenly and the flask was allowed to sit in incubator for ˜4-5 minutes.
When a single cell suspension was obtained, 7 ml of prewarmed growth media was added and resuspended with the cells. The cell suspension was transferred to a sterile 15 ml conical centrifuge tube, and spun for 5 min at 300×g, RT. The supernatant was discarded and the pellet was resuspended in 10 ml of pre-warmed growth media.
The total cell count was determined, and 20 μl of the desired cell number was added to each well of a 384 well plate using a Multidrop Combi. The plates were then incubated for 24 hours at 37° C., 95% rH, and 5% CO2.
Compound treatment: 24 hours after seeding, the cells were treated with compounds.
A 1:333 dilution of compounds, diluted in DMSO, was made to get a final concentration of 0.3% DMSO per well. To transfer the compounds to the assay plate, 120 nl was shot from Labcyte low dead volume plates to the cell plates containing 20 μl media/well with the ECHO 555 liquid handling system. After treatment, the cells were fed with 20 μl fresh pre-warmed assay media using a Multidrop combi.
The assay plates were then incubated for another 24 h at 37° C., 95% rH, and 5% CO2.
Luciferase readout: 24 h after treatment, the plates were taken out of the incubator and were allowed to equilibrate to RT. 30 μl of NanoGlo® reagent was added to the plates in the dark. Plates were shaken for 20 min on a Teleshake (˜1500 rpm) in the dark. The luminescence was then measured using an EnVision microplate reader. The IC50 values were generated using Genedata Screener®.

`Cn1nc2c3sc(C(N)=O)cc3n(-c3ccc(OC(F)(F)F)cc3)c2n1` [Compound 38, 4-methyl-7-[4-(trifluoromethoxy)phenyl]-11-thia-3,4,5,7-tetraazatricyclo[6.3.0.0^2,6]undeca-1(8),2,5,9-tetraene-10-carboxamide] and `Cn1nc2c3sc(C(=O)NC4CC4)cc3n(-c3ccc(OC(F)(F)F)cc3)c2n1` [Compound 30, N-cyclopropyl-4-methyl-7-[4-(trifluoromethoxy)phenyl]-11-thia-3,4,5,7-tetraazatricyclo[6.3.0.0^2,6]deca-1(8),2,5,9-tetraene-10-carboxamide] fall in the same range of IC50: 0.1 to 10 µM for the first, 0.1 to 10 µM for the second.

Compared with `CNC(=O)c1cc2c(s1)c1nc(C)sc1n2-c1ccc(OC(F)(F)F)cc1` [Compound 26, N,4-dimethyl-7-[4-(trifluoromethoxy)phenyl]-5,11-dithia-3,7-diazatricyclo[6.3.0.0^2,6]undeca-1(8),2(6),3,9-tetraene-10-carboxamide], `CNC(=O)c1cc2c(s1)c1nc(C)sc1n2-c1ccc(C(F)(F)F)cc1` [Compound 23, N,4-dimethyl-7-[4-(trifluoromethyl)phenyl]-5,11-dithia-3,7-diazatricyclo[6.3.0.0^2,6]undeca-1(8),2(6),3,9-tetraene-10-carboxamide] is higher in IC50: 0.1 to 10 µM for the first, greater than 10 µM for the second. The first is the more potent here.

`Cn1cc2c3cc(C(=O)O)sc3n(-c3ccc(C(F)(F)F)nc3)c2n1` [Compound 81, 4-methyl-7-[6-(trifluoromethyl)pyridin-3-yl]-9-thia-4,5,7-triazatricyclo[6.3.0.0^2,6]undeca-1(8),2,5,10-tetraene-10-carboxylic acid] and `C[C@H](CO)NC(=O)c1cc2c3cn(C)nc3n(-c3ccc(SC(F)(F)F)cc3)c2s1` [Compound 84, N-[(2R)-1-hydroxypropan-2-yl]-4-methyl-7-{4-[(trifluoromethyl)sulfanyl]phenyl}-9-thia-4,5,7-triazatricyclo[6.3.0.0^2,6]undeca-1(8),2,5,10-tetraene-10-carboxamide] fall in the same range of IC50: 0.01 to 0.1 µM for the first, 0.01 to 0.1 µM for the second.

First: Cn1cc2c3sc(C(=O)N[C@@H](CO)c4ccccn4)cc3n(-c3ccc(C(F)(F)F)cc3)c2n1 [Compound 14, N-[(1R)-2-hydroxy-1-(pyridin-2-yl)ethyl]-10-methyl-7-[4-(trifluoromethyl)phenyl]-3-thia-7,9,10-triazatricyclo[6.3.0.0^2,6]undeca-1(11),2(6),4,8-tetraene-4-carboxamide]
Second: Cn1cc2c3cc(C(=O)N[C@@H](CO)c4ccccn4)sc3n(-c3ccc(C(F)F)cc3)c2n1 [Compound 101, 7-[4-(difluoromethyl)phenyl]-N-[(1R)-2-hydroxy-1-(pyridin-2-yl)ethyl]-4-methyl-9-thia-4,5,7-triazatricyclo[6.3.0.0^2,6]undeca-1(8),2,5,10-tetraene-10-carboxamide]
The IC50 of the first is higher: greater than 10 µM for the first, 0.1 to 10 µM for the second. The second is the more potent here.

First: COCC[C@H](CO)NC(=O)c1cc2c3cn(C)nc3n(-c3ccc(C(F)(F)F)cc3)c2s1 (single isomer, unassigned) [Compound 58]
Second: C[C@H](CO)NC(=O)c1cc2c3nn(C)nc3n(-c3ccc(C(F)(F)F)cc3)c2s1 [Compound 106, N-[(2R)-1-hydroxypropan-2-yl]-4-methyl-7-[4-(trifluoromethyl)phenyl]-9-thia-3,4,5,7-tetraazatricyclo[6.3.0.0^2,6]undeca-1(8),2,5,10-tetraene-10-carboxamide]
The IC50 of the first is higher: greater than 10 µM for the first, 0.1 to 10 µM for the second. The second is the more potent here.

First: Cn1nc2c3cc(C(=O)N4CC[C@@H](O)C4)sc3n(-c3ccc(C(F)(F)F)cc3)c2n1 [Compound 108, (3R)-1-{4-methyl-7-[4-(trifluoromethyl)phenyl]-9-thia-3,4,5,7-tetraazatricyclo[6.3.0.0^2,6]undeca-1(8),2,5,10-tetraene-10-carbonyl}pyrrolidin-3-ol]
Second: Cn1nc2c3cc(C(=O)N4CC[C@H](O)C4)sc3n(-c3ccc(C(F)(F)F)cc3)c2n1 [Compound 103, (3S)-1-{4-methyl-7-[4-(trifluoromethyl)phenyl]-9-thia-3,4,5,7-tetraazatricyclo[6.3.0.0^2,6]undeca-1(8),2,5,10-tetraene-10-carbonyl}pyrrolidin-3-ol]
The IC50 of the first is higher: greater than 10 µM for the first, 0.1 to 10 µM for the second.

First: Cn1nc2c3sc(C(=O)NCCO)cc3n(-c3ccc(C(F)(F)F)cc3)c2n1 [Compound 7, N-(2-hydroxyethyl)-4-methyl-7-[4-(trifluoromethyl)phenyl]-11-thia-3,4,5,7-tetraazatricyclo[6.3.0.0^2,6]undeca-1(8),2,5,9-tetraene-10-carboxamide]
Second: Cn1nc2c3sc(C(=O)N4CCC(O)C4)cc3n(-c3ccc(C(F)(F)F)cc3)c2n1 (stereo not drawn) [Compound 9, 1-{4-methyl-7-[4-(trifluoromethyl)phenyl]-11-thia-3,4,5,7-tetraazatricyclo[6.3.0.0^2,6]undeca-1(8),2,5,9-tetraene-10-carbonyl}pyrrolidin-3-ol]
The IC50 of the first is higher: greater than 10 µM for the first, 0.1 to 10 µM for the second. The second is the more potent here.

`CNC(=O)c1cc2c(s1)c1cn(C)nc1n2C[C@H]1C[C@@H](C(F)(F)F)C1` [Compound 39, N,10-dimethyl-7-{[(1s,3s)-3-(trifluoromethyl)cyclobutyl]methyl}-3-thia-7,9,10-triazatricyclo[6.3.0.0^2,6]undeca-1(11),2(6),4,8-tetraene-4-carboxamide] showed an IC50 of 0.1 to 10 µM.

same assay, conditions: Homo sapiens, SK-HEP1, SK-HEP-1 cells, 24 hour incubation, number, or n.d. (x) = not detectable below threshold x

`CNC(=O)c1cc2c3cn(C)nc3n(-c3ccc(C(F)(F)F)nc3)c2s1` [Compound 87, N,4-dimethyl-7-[6-(trifluoromethyl)pyridin-3-yl]-9-thia-4,5,7-triazatricyclo[6.3.0.0^2,6]undeca-1(8),2,5,10-tetraene-10-carboxamide] and `Cn1cc2c3cc(C(=O)NC[C@H](O)CO)sc3n(-c3ccc(C(F)(F)F)cc3)c2n1` (single isomer, unassigned) [Compound 129] cannot be ordered by IC50: greater than 30 µM for the first, greater than 0.95 µM for the second.

`C[C@@H](CO)NC(=O)c1cc2c3nn(C)nc3n(-c3ccc(C(F)(F)F)cc3)c2s1` [Compound 110, N-[(2S)-1-hydroxypropan-2-yl]-4-methyl-7-[4-(trifluoromethyl)phenyl]-9-thia-3,4,5,7-tetraazatricyclo[6.3.0.0^2,6]undeca-1(8),2,5,10-tetraene-10-carboxamide] and `Cn1cc2c3cc(C(=O)NC(CO)CO)sc3n(-c3ccc(C(F)(F)F)cc3)c2n1` [Compound 112, N-(1,3-dihydroxypropan-2-yl)-4-methyl-7-[4-(trifluoromethyl)phenyl]-9-thia-4,5,7-triazatricyclo[6.3.0.0^2,6]undeca-1(8),2,5,10-tetraene-10-carboxamide] cannot be ordered by IC50: greater than 30 µM for the first, greater than 9.5 µM for the second.

`C[C@H](CO)NC(=O)c1cc2c3cn(C)nc3n(-c3ccc(C(F)F)cn3)c2s1` [Compound 132, 7-[5-(difluoromethyl)pyridin-2-yl]-N-[(2R)-1-hydroxypropan-2-yl]-4-methyl-9-thia-4,5,7-triazatricyclo[6.3.0.0^2,6]undeca-1(8),2,5,10-tetraene-10-carboxamide] and `Cn1ccc(C(CO)NC(=O)c2cc3c4cn(C)nc4n(-c4ccc(C(F)(F)F)cn4)c3s2)n1` (stereo not drawn) [Compound 116, N-[2-hydroxy-1-(1-methyl-1H-pyrazol-3-yl)ethyl]-4-methyl-7-[5-(trifluoromethyl)pyridin-2-yl]-9-thia-4,5,7-triazatricyclo[6.3.0.0^2,6]undeca-1(8),2,5,10-tetraene-10-carboxamide] cannot be ordered by IC50: greater than 0.3 µM for the first, greater than 30 µM for the second.

`Cn1cc2c3cc(C(=O)N[C@@H](CO)c4ccccn4)sc3n(-c3ccc(C(F)(F)F)cn3)c2n1` [Compound 113, N-[(1R)-2-hydroxy-1-(pyridin-2-yl)ethyl]-4-methyl-7-[5-(trifluoromethyl)pyridin-2-yl]-9-thia-4,5,7-triazatricyclo[6.3.0.0^2,6]undeca-1(8),2,5,10-tetraene-10-carboxamide] and `Cn1cc2c3cc(C(=O)N[C@H](CO)C4CCC4)sc3n(-c3ccc(C(F)(F)F)cc3)c2n1` (single isomer, unassigned) [Compound 56] cannot be ordered by IC50: greater than 9.5 µM for the first, greater than 9.5 µM for the second.

`CC(=O)NCCOCCOCCNC(=O)c1cc2c3cn(C)nc3n(-c3ccc(C(F)(F)F)cc3)c2s1` [Compound 73, N-(2-{2-[2-({4-methyl-7-[4-(trifluoromethyl)phenyl]-9-thia-4,5,7-triazatricyclo[6.3.0.0^2,6]undeca-1(8),2,5,10-tetraen-10-yl}formamido)ethoxy]ethoxy}ethyl)acetamide] showed an IC50 greater than 3 µM.
